These are literature values, as cited in patent US20140037729A1, “COMBINATION OF AN OPIOID AGONIST AND AN OPIOID ANTAGONIST IN THE TREATMENT OF PARKINSON'S DISEASE” (Euro-Celtique, S.A., priority 2010, published 2014).

SMILES strings stand for the structures.

The subject of data set [1] is parkinsonian monkeys. To be noted: in the long term; Samadi et al. 2005.
The conditions of data set [2]: reported.
Data set [3] deals with parkinsonian patients. To be noted: at higher doses; Berg et al. 1999.

With `O=C1CC[C@@]2(O)[C@H]3Cc4ccc(O)c5c4[C@@]2(CCN3CC2CC2)[C@H]1O5` [naltrexone], in data set [1], the dyskinesias result was “increases dyskinesias”.

Take `C=CCN1CC[C@]23c4c5ccc(O)c4O[C@H]2C(=O)CC[C@@]3(O)[C@H]1C5` [Naloxone, naloxone]: the oral bioavailability in data set [2] was not above 2%.

Consider `CN1CC[C@]23c4c5ccc(O)c4O[C@H]2[C@@H](O)C=C[C@H]3[C@H]1C5` [morphine], for which the akinesia result in data set [3] is “increase in akinesia”.
